In patent US20200247855A1, “THERAPY AND DIAGNOSTICS” (OXFORD UNIVERSITY INNOVATION LIMITED, priority 2017, published 2020):
Positions of bridges follow the written chain, without caps; N, C: chain ends. Residues, ends and D or L forms follow the SMILES beside them. Chains are numbered I, II in the order given. *: point of attachment. FITC = O=C1OC2(c3ccc(O)cc3Oc3cc(O)ccc32)c2ccc(NC(=S)*)cc21

Legend:
human CCL8-647 = biological target: T1, human CCL8-647 (Homo sapiens, UniProt P80075); assay: Fluorescent chemokine binding to THP-1 cells (flow cytometry); type: cell-based
T1 construct: purchased Almac (UK)
T1 sequence (P80075 24-99): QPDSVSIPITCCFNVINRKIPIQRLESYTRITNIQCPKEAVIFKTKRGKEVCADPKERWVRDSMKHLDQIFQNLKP
Method: P672_PEP_SCRAM (C-terminally amidated)=[…] FIG. 16(A). […] 60 μM (+) P672_PEP or P672_PEP_SCRAM were incubated with CCL8-647 (2.5 nM) for half an hour at 37° C. prior to adding to THP-1 cells and incubating everything together for a further half an hour at 37° C. Cells were then analysed using fluorescence assisted cell sorting (10,000 cells analysed) and MFI recorded. Experiment carried out in triplicate where each data point is the average of one experiment carried out in technical triplicate. Mean with SEM shown and statistical significance was determined using one-way ANOVA with Sidak's correction for multiple comparisons using Graph Pad Prism 6. ****=P<0.00005, ns=not significant.
Data are shown as mean of two technical replicates. […] Curves were fitted with 4 parameters to estimate IC50.
Fluorescent chemokine (conjugated to AlexaFluor-647) binding to THP-1 cells results in an increase in the cellular fluorescence intensity, which is quantitatively measured using flow cytometry.
Fluorescent Chemokine/Receptor Blocking Assay CCL8-647 (2.5 nM, final) or […] (1.2 nM, final) was incubated for 30 minutes with varying doses of peptide (0-100 μM, final concentration) in 50 μL assay buffer (RPMI-1640+L-glutamine (4 mM)+10% heat treated fetal bovine serum+0.2% DMSO) at 37° C. […]

CCL8_HUMAN = biological target: T2, CCL8_HUMAN (Homo sapiens, UniProt P80075); assay: Neutralisation of chemokine induced THP-1 cell migration; type: cell-based
T2 sequence (P80075 24-99): T1 sequence (P80075 24-99)
Method: Table 1. Tick CKBPs described in PCT/GB2017/050563 and [17]. Tick peptide sequences isolated in yeast surface display fluorescent-activated cell sorting (FACS) screens using a labelled chemokine. Identity with Evasin-1, 4 or 3 was calculated using BLAST. Abbreviations: IXORI—Ixodes ricinus, RHISA—Rhipicephalus sanguineus, AMBMA—Amblyomma maculatum, AMBPA—Amblyomma parvum, AMBTR—Amblyomma triste, AMBAM—Amblyomma americanum, AMBCA—Amblyomma cajennense, RHIPU—Rhipicephalus pulchellus. Table 2A-C. Binding characteristics of tick CKBPs previously disclosed (PCT/GB2017/050563 and [17]). All members of the human chemokine family[164] are listed in column 1. Binding to human chemokines was determined for 14 tick CKBPs using biolayer interferometry (BLI) with calculated Kd shown as Molar (Moles/Litre). Binding data for 17 other novel tick CKBPs was assayed using yeast surface display[17,166],with positive binding results shown as “YES”. For biolayer interferometry, His-tagged purified tick CKBP was bound to a Ni-NINTA sensor on an OctetRed® 384 system, and then binding to each chemokine listed (with the exception of CCL25, CCL26, CXCL16, CXCL17, CXCL4L1, XCL2) was assayed in a cross-binding screen at a chemokine concentration of 300 nM as described. For those chemokines showing binding to a tick CKBP in the cross-binding screen, binding assays were repeated using different doses of chemokine. Association, equilibrium and dissociation data were analysed using Octet software to create corresponding fitted curves, and used to calculate Kd. For yeast surface display, (YSD) background fluorescence was controlled for by using either an empty vector or by omitting the chemokine (i.e. using streptavidin-Alexa647 alone). An arbitrary threshold of >3 fold over background mean fluorescence intensity was chosen to describe confirmed re-tests. Where binding was detected data are indicated as “YES”. […] For yeast surface display data, empty cells represent chemokines that were not tested. Binding data published in relation to previously described tick CKBPs (Evasins-1, 4 and 3) is also shown for comparison in each of FIGS. 2A-C, with the relevant data obtained from publications: [20-22,32]. Table 3: Neutralisation of human chemokines by tick CKBPs previously disclosed (PCT/GB2017/050563 and [17]). Neutralising activity was determined using a quantitative THP1 cell migration assay in a 96-well Boyden chamber with chemokine in the bottom chamber as described. Cells migrating through to the bottom chamber at 4 hours were counted using flow cytometry in a 96 well plate format. IC50 for neutralisation was determined at the chemokine EC80 dose as determined using a range of tick CKBP concentrations. Data was analysed using GraphPad Prism to determine IC50, which is shown as Molar (Moles/Litre). Empty cells represent experiments not done. Table 4—Other previously described tick CKBPs. Tick CKBPs that were also described in PCT/GB2017/050563 and Singh et al. are indicated in “Notes”. Table 5.—Novel tick CKBPs of the invention. Table 6. […] The peptide sequence prefix indicates the identity, and suffix indicate the tick species as follows: AMBCA, Amblyomma cajennense and IXORI, Ixodes ricinus. […] Individual yeast clones recovered from the library were re-tested using a FACS (fluorescence activated cell sorting), experiment. The binding of the peptide to the chemokine was assayed by measuring the percent (%), of yeast cells expressing the given peptide that exceeded a background threshold set by measuring the fluorescence of the yeast library pool treated with streptavidin-[…] alone. When more than one independent yeast clone was isolated for a given peptide-chemokine combination, the mean percent shift was calculated and reported in column 3.

CCL8 = biological target: T3, CCL8 (Homo sapiens, UniProt P80075); assay: Fluorescence polarisation (anisotropy) assay; type: binding; conditions: BK1.1FITC Ala mutants, CCL8
T3 construct: SUMO (in-house protein only) (cleaved yes); made in house; host or cells: Escherichia coli RosettaGami 2 (DE3)
T3 sequence (P80075 24-99): T1 sequence (P80075 24-99)
Description: FIG. 14. Characterisation of P672_PEP-FITC by fluorescence polarisation. […] Residue C30 was mutated to A to avoid an unpaired cysteine residue. The residues corresponding to the above peptide are wholly contained within the CCL8-binding region of P672_RHIPU transferred in the hybrid evasin P672:EVA1 (SEQ ID 76, see FIG. 5). […] (SEQ ID NO: 90). FIG. 14(A). […] The curve was fitted to the two site-total and non-specific binding model in GraphPad Prism 6. Data are shown as mean and SEM of three independent experiments, with each independent experiment performed as three technical replicates. The affinity constant Kd was calculated in GraphPad Prism from the curve fit with the standard error reported.
FIG. 14(B). […] The measured fluorescence anisotropy (y-axis) of P672_PEP-FITC (50 nM) following binding to a fixed dose (1 μM)) of CCL7, CCL8, CCL18 and CXCL1 (negative control). […] Statistical significance was determined using one-way ANOVA with Sidak's correction for multiple comparisons using Graph Pad Prism 6. **=p<0.005, ****=P<0.00005, ns=not significant.
FIG. 15(C). […] In each case 100 μM (++) or […] (+) of P672_PEP was incubated with P672_PEP-FITC (50 nM)/chemokine (1 μM CCL7 and CCL18; 500 nM CCL8) and the resulting anisotropy measured. […] Experiment carried out in triplicate where each data point is the average of one experiment carried out in technical triplicate. Mean with SEM shown and statistical significance was determined using one-way ANOVA with Sidak's correction for multiple comparisons using Graph Pad Prism 6. *=p<0.05, ***=p<0.0005, ****=P<0.00005, ns=not significant.
Fluorescence polarization assays were performed using a Clariostar (BMG Tech) plate reader with the supplied FITC excitation and emission filters using 96 half area well plates (Corning). The buffer used (FP assay buffer) was 50 mM HEPES, 150 mM NaCl, 0.1% BSA, 0.002% TWEEN-20, 0.2% DMSO, pH 7.4 and the final volume in each well was 30 μL. Polarization was converted to anisotropy using the equation A=(2*P)/(3−P) where P is polarization and A is anisotropy. For each peptide tested the gain was set to 35 mP and adjusted to a well containing fluorescent peptide only. The polarization of the emitted light in the FITC emission channel was then determined. Experiments were performed as two technical and three biological replicates. Screening of P672 peptide fragments was achieved through incubation of each peptide (50 nM) with 1 μM CCL8 (Peprotech) for 30 minutes in FP assay buffer and the resulting anisotropy of the emitted light determined as above. The chemokine cross binding screen was performed by incubating 1 μM chemokine (Peprotech) with 50 nM BK1.1FITC for half an hour in FP assay buffer and the resulting anisotropy of the emitted light determined as above. […] The anisotropy was plotted as a function of CCL8 concentration and fitted to the equation: Y=Bmax*X/(KD+X)+NS*X+Background, where Y is the measured anisotropy, X is the concentration of CCL8 added, Bmax is the maximum binding, KD is the equilibrium dissociation constant, NS is the slope of the nonlinear regression and Background is the anisotropy when no CCL8 is present, in Graph Pad Prism. Displacement assays were carried out with CCL7, CCL8, and CCL18 (Peprotech, 1 μM). […] For all FP assays, the experiments were carried out as two technical and three biological replicates.

SMILES | IC50 (human CCL8-647) | IC50 (CCL8_HUMAN) | Fold change (Kd versus WT) (CCL8)
CC(C)[C@H](NC(=O)[C@@H]1CCCN1C(=O)[C@H](CCCCN)NC(=O)[C@H](Cc1ccccc1)NC(=O)[C@H](Cc1ccccc1)NC(=O)[C@H](CC(=O)O)NC(=O)[C@H](CCC(=O)O)NC(=O)[C@H](Cc1ccc(O)cc1)NC(=O)[C@H](CC(=O)O)NC(=O)[C@H](CCC(=O)O)NC(=O)[C@H](CC(=O)O)NC(=O)[C@H](CCC(=O)O)NC(=O)[C@@H](N)Cc1ccc(O)cc1)C(=O)N[C@H](C(=O)N[C@@H](CSSC[C@H](NC(=O)[C@@H](NC(=O)[C@@H](NC(=O)[C@@H]1CCCN1C(=O)[C@H](CCCCN)NC(=O)[C@H](Cc1ccccc1)NC(=O)[C@H](Cc1ccccc1)NC(=O)[C@H](CC(=O)O)NC(=O)[C@H](CCC(=O)O)NC(=O)[C@H](Cc1ccc(O)cc1)NC(=O)[C@H](CC(=O)O)NC(=O)[C@H](CCC(=O)O)NC(=O)[C@H](CC(=O)O)NC(=O)[C@H](CCC(=O)O)NC(=O)[C@@H](N)Cc1ccc(O)cc1)C(C)C)[C@@H](C)O)C(=O)N[C@@H](Cc1ccc(O)cc1)C(=O)N[C@@H](Cc1ccccc1)C(N)=O)C(=O)N[C@@H](Cc1ccc(O)cc1)C(=O)N[C@@H](Cc1ccccc1)C(N)=O)[C@@H](C)O [BK1.3] (I: H-YEDEDYEDFFKPVTCYF-NH2 / II: H-YEDEDYEDFFKPVTCYF-NH2; disulfide I:15-II:15) | 47 nM | 8 nM | 
C[C@H](NC(=O)[C@@H](NC(=O)[C@H](C)NC(=O)[C@@H]1CCCN1C(=O)[C@H](CCCCN)NC(=O)[C@H](Cc1ccccc1)NC(=O)[C@H](Cc1ccccc1)NC(=O)[C@H](CC(=O)O)NC(=O)[C@H](CCC(=O)O)NC(=O)[C@H](Cc1ccc(O)cc1)NC(=O)[C@H](CC(=O)O)NC(=O)[C@H](CCC(=O)O)NC(=O)[C@H](CC(=O)O)NC(=O)[C@H](CCC(=O)O)NC(=S)Nc1ccc2c(c1)C(=O)OC21c2ccc(O)cc2Oc2cc(O)ccc21)[C@@H](C)O)C(=O)N[C@@H](Cc1ccc(O)cc1)C(=O)N[C@@H](Cc1ccccc1)C(N)=O [V28A] ({FITC}-EDEDYEDFFKPATAYF-NH2) |  |  | 3.8
CC(C)[C@H](NC(=O)[C@@H]1CCCN1C(=O)[C@H](CCCCN)NC(=O)[C@H](Cc1ccccc1)NC(=O)[C@H](Cc1ccccc1)NC(=O)[C@H](CC(=O)O)NC(=O)[C@H](CCC(=O)O)NC(=O)[C@H](C)NC(=O)[C@H](CC(=O)O)NC(=O)[C@H](CCC(=O)O)NC(=O)[C@H](CC(=O)O)NC(=O)[C@H](CCC(=O)O)NC(=S)Nc1ccc2c(c1)C(=O)OC21c2ccc(O)cc2Oc2cc(O)ccc21)C(=O)N[C@H](C(=O)N[C@@H](C)C(=O)N[C@@H](Cc1ccc(O)cc1)C(=O)N[C@@H](Cc1ccccc1)C(N)=O)[C@@H](C)O [Y21A] ({FITC}-EDEDAEDFFKPVTAYF-NH2) |  |  | 4.7
CC(C)[C@H](NC(=O)[C@@H]1CCCN1C(=O)[C@H](CCCCN)NC(=O)[C@H](Cc1ccccc1)NC(=O)[C@H](Cc1ccccc1)NC(=O)[C@H](CC(=O)O)NC(=O)[C@H](CCC(=O)O)NC(=O)[C@H](Cc1ccc(O)cc1)NC(=O)[C@H](CC(=O)O)NC(=O)[C@H](CCC(=O)O)NC(=O)[C@H](CC(=O)O)NC(=O)[C@H](CCC(=O)O)NC(=S)Nc1ccc2c(c1)C(=O)OC21c2ccc(O)cc2Oc2cc(O)ccc21)C(=O)N[C@H](C(=O)N[C@@H](C)C(=O)N[C@@H](C)C(=O)N[C@@H](Cc1ccccc1)C(N)=O)[C@@H](C)O [Y31A] ({FITC}-EDEDYEDFFKPVTAAF-NH2) |  |  | 3.8
